# Laboratory results published in BigSolDB 2.1.
smiles,measurement,setting,value
CCOc1ccc2ccccc2c1C(=O)O,solubility (mole fraction),"in acetone, 278.15 K",0.0535
same,solubility (mole fraction),"in acetone, 283.15 K",0.0606
same,solubility (mole fraction),"in acetone, 288.15 K",0.0691
same,solubility (mole fraction),"in acetone, 293.15 K",0.0781
same,solubility (mole fraction),"in acetone, 298.15 K",0.089
same,solubility (mole fraction),"in acetone, 303.15 K",0.0994
same,solubility (mole fraction),"in acetone, 308.15 K",0.112
same,solubility (mole fraction),"in acetone, 313.15 K",0.127
same,solubility (mole fraction),"in acetone, 318.15 K",0.142
same,solubility (mole fraction),"in acetone, 323.15 K",0.159
same,solubility (mole fraction),"in acetonitrile, 278.15 K",0.00615
same,solubility (mole fraction),"in acetonitrile, 283.15 K",0.00747
same,solubility (mole fraction),"in acetonitrile, 288.15 K",0.00921
same,solubility (mole fraction),"in acetonitrile, 293.15 K",0.011
same,solubility (mole fraction),"in acetonitrile, 298.15 K",0.0135
same,solubility (mole fraction),"in acetonitrile, 303.15 K",0.0165
same,solubility (mole fraction),"in acetonitrile, 308.15 K",0.022
same,solubility (mole fraction),"in acetonitrile, 313.15 K",0.0254
same,solubility (mole fraction),"in acetonitrile, 318.15 K",0.0308
same,solubility (mole fraction),"in acetonitrile, 323.15 K",0.0378
same,solubility (mole fraction),"in ethanol, 278.15 K",0.0268
same,solubility (mole fraction),"in ethanol, 283.15 K",0.0325
same,solubility (mole fraction),"in ethanol, 288.15 K",0.0392
same,solubility (mole fraction),"in ethanol, 293.15 K",0.0469
same,solubility (mole fraction),"in ethanol, 298.15 K",0.0565
same,solubility (mole fraction),"in ethanol, 303.15 K",0.0688
same,solubility (mole fraction),"in ethanol, 308.15 K",0.0836
same,solubility (mole fraction),"in ethanol, 313.15 K",0.101
same,solubility (mole fraction),"in ethanol, 318.15 K",0.119
same,solubility (mole fraction),"in ethanol, 323.15 K",0.136
same,solubility (mole fraction),"in ethyl acetate, 278.15 K",0.015
same,solubility (mole fraction),"in ethyl acetate, 283.15 K",0.0174
same,solubility (mole fraction),"in ethyl acetate, 288.15 K",0.0204
same,solubility (mole fraction),"in ethyl acetate, 293.15 K",0.0239
same,solubility (mole fraction),"in ethyl acetate, 298.15 K",0.0279
same,solubility (mole fraction),"in ethyl acetate, 303.15 K",0.0331
same,solubility (mole fraction),"in ethyl acetate, 308.15 K",0.038
same,solubility (mole fraction),"in ethyl acetate, 313.15 K",0.0447
same,solubility (mole fraction),"in ethyl acetate, 318.15 K",0.0526
same,solubility (mole fraction),"in ethyl acetate, 323.15 K",0.0606
same,solubility (mole fraction),"in isobutanol, 278.15 K",0.0111
same,solubility (mole fraction),"in isobutanol, 283.15 K",0.0138
same,solubility (mole fraction),"in isobutanol, 288.15 K",0.0172
same,solubility (mole fraction),"in isobutanol, 293.15 K",0.0208
same,solubility (mole fraction),"in isobutanol, 298.15 K",0.0256
same,solubility (mole fraction),"in isobutanol, 303.15 K",0.0322
same,solubility (mole fraction),"in isobutanol, 308.15 K",0.0396
same,solubility (mole fraction),"in isobutanol, 313.15 K",0.0508
same,solubility (mole fraction),"in isobutanol, 318.15 K",0.0623
same,solubility (mole fraction),"in isobutanol, 323.15 K",0.0779
same,solubility (mole fraction),"in isopropanol, 278.15 K",0.0148
same,solubility (mole fraction),"in isopropanol, 283.15 K",0.0181
same,solubility (mole fraction),"in isopropanol, 288.15 K",0.0228
same,solubility (mole fraction),"in isopropanol, 293.15 K",0.0287
same,solubility (mole fraction),"in isopropanol, 298.15 K",0.036
same,solubility (mole fraction),"in isopropanol, 303.15 K",0.0459
same,solubility (mole fraction),"in isopropanol, 308.15 K",0.058
same,solubility (mole fraction),"in isopropanol, 313.15 K",0.0733
same,solubility (mole fraction),"in isopropanol, 318.15 K",0.0901
same,solubility (mole fraction),"in isopropanol, 323.15 K",0.112
same,solubility (mole fraction),"in isopropyl acetate, 278.15 K",0.0118
same,solubility (mole fraction),"in isopropyl acetate, 283.15 K",0.0136
same,solubility (mole fraction),"in isopropyl acetate, 288.15 K",0.0155
same,solubility (mole fraction),"in isopropyl acetate, 293.15 K",0.0185
same,solubility (mole fraction),"in isopropyl acetate, 298.15 K",0.0213
same,solubility (mole fraction),"in isopropyl acetate, 303.15 K",0.0245
same,solubility (mole fraction),"in isopropyl acetate, 308.15 K",0.029
same,solubility (mole fraction),"in isopropyl acetate, 313.15 K",0.0333
same,solubility (mole fraction),"in isopropyl acetate, 318.15 K",0.0389
same,solubility (mole fraction),"in isopropyl acetate, 323.15 K",0.0454
same,solubility (mole fraction),"in methanol, 278.15 K",0.0304
same,solubility (mole fraction),"in methanol, 283.15 K",0.037
same,solubility (mole fraction),"in methanol, 288.15 K",0.0443
same,solubility (mole fraction),"in methanol, 293.15 K",0.0552
same,solubility (mole fraction),"in methanol, 298.15 K",0.0671
same,solubility (mole fraction),"in methanol, 303.15 K",0.0821
same,solubility (mole fraction),"in methanol, 308.15 K",0.0951
same,solubility (mole fraction),"in methanol, 313.15 K",0.114
same,solubility (mole fraction),"in methanol, 318.15 K",0.134
same,solubility (mole fraction),"in methanol, 323.15 K",0.151
same,solubility (mole fraction),"in methyl acetate, 278.15 K",0.0153
same,solubility (mole fraction),"in methyl acetate, 283.15 K",0.0181
same,solubility (mole fraction),"in methyl acetate, 288.15 K",0.0215
same,solubility (mole fraction),"in methyl acetate, 293.15 K",0.0254
same,solubility (mole fraction),"in methyl acetate, 298.15 K",0.0301
same,solubility (mole fraction),"in methyl acetate, 303.15 K",0.0356
same,solubility (mole fraction),"in methyl acetate, 308.15 K",0.0417
same,solubility (mole fraction),"in methyl acetate, 313.15 K",0.0495
same,solubility (mole fraction),"in methyl acetate, 318.15 K",0.0587
same,solubility (mole fraction),"in methyl acetate, 323.15 K",0.0693
same,solubility (mole fraction),"in n-pentanol, 278.15 K",0.0174
same,solubility (mole fraction),"in n-pentanol, 283.15 K",0.0205
same,solubility (mole fraction),"in n-pentanol, 288.15 K",0.0248
same,solubility (mole fraction),"in n-pentanol, 293.15 K",0.0296
same,solubility (mole fraction),"in n-pentanol, 298.15 K",0.0356
same,solubility (mole fraction),"in n-pentanol, 303.15 K",0.0431
same,solubility (mole fraction),"in n-pentanol, 308.15 K",0.052
same,solubility (mole fraction),"in n-pentanol, 313.15 K",0.0632
same,solubility (mole fraction),"in n-pentanol, 318.15 K",0.0744
same,solubility (mole fraction),"in n-pentanol, 323.15 K",0.0902
same,solubility (mole fraction),"in n-propanol, 278.15 K",0.0212
same,solubility (mole fraction),"in n-propanol, 283.15 K",0.0236
same,solubility (mole fraction),"in n-propanol, 288.15 K",0.0283
same,solubility (mole fraction),"in n-propanol, 293.15 K",0.0345
same,solubility (mole fraction),"in n-propanol, 298.15 K",0.0424
same,solubility (mole fraction),"in n-propanol, 303.15 K",0.0511
same,solubility (mole fraction),"in n-propanol, 308.15 K",0.0632
same,solubility (mole fraction),"in n-propanol, 313.15 K",0.0779
same,solubility (mole fraction),"in n-propanol, 318.15 K",0.092
same,solubility (mole fraction),"in n-propanol, 323.15 K",0.114
same,solubility (mole fraction),"in n-propyl acetate, 278.15 K",0.0129
same,solubility (mole fraction),"in n-propyl acetate, 283.15 K",0.0149
same,solubility (mole fraction),"in n-propyl acetate, 288.15 K",0.0177
same,solubility (mole fraction),"in n-propyl acetate, 293.15 K",0.0204
same,solubility (mole fraction),"in n-propyl acetate, 298.15 K",0.024
same,solubility (mole fraction),"in n-propyl acetate, 303.15 K",0.028
same,solubility (mole fraction),"in n-propyl acetate, 308.15 K",0.0322
same,solubility (mole fraction),"in n-propyl acetate, 313.15 K",0.0381
same,solubility (mole fraction),"in n-propyl acetate, 318.15 K",0.0445
same,solubility (mole fraction),"in n-propyl acetate, 323.15 K",0.0516
